Consider eight compounds from patent publication US4968686A, “Acyclic pyrrolo [2,3-d]pyrimidine analogs as antiviral agents” (The Regents of The University of Michigan, priority 1989, dated 1990).

One data set can be described thus: in vitro. The class given is cell-based, human. The following applies: human, kb cells. On the procedure:
(§1) KB or HFF cells were planted using a Costar Transplate-96 (Costar, Cambridge, Mass.) in Costar 96-well cluster dishes at a concentration of 10,000 to 12,000 cells per well. Wells were suspended in 200 μl of medium [MDM(H) plus 0.7 gm/liter NaCHO3 supplemented with 10% calf serum] per well. After incubation of 16 to 24 hours at 37° C. in a humidified atmosphere of 4% CO2 in air, […] of medium was removed per well. One-hundred μl of medium with or without compounds in twice their final concentrations was added to each well using a Titertek Multichannel Pipette. Final concentrations of compounds ranged from 0.1 to 320 μM. Fifty μl of medium containing radioactive precursors also was added to each well to give a final concentration to 1 to 3 μCi/ml of labeled precursor. [^3 H]Thd was diluted with unlabeled dThd to give a final concentration of 3 or 6 μM.
(§2) Logarithmic cell growth occurred during this time with continual uptake of labeled precursors. At the end of the incubation period, cells were individually harvested from each well using a Skatron Cell harvester (Skatronh, Inc., Sterling, Va.). Cultures for individual wells were harvested onto filter paper and washed free of unincorporated label with nine sequential washes with 5% trichloroacetic acid, nine washes with water, and nine with ethanol using the Skatron unit. Filters were dried, circles from individual cultures were punched from the filter mat and placed into mini-vials. Liquid scintillation solution was added, and radioactivity determined in a Beckman model LS8100 liquid scintillation spectrometer. All samples were counted for 2.0 minutes each, with three rounds of counting. Counts per minute were determined following the application of statistical methods to eliminate count rates which fell outside distribution limits defined by Chauvenet's rejection criterion.
(§3) All analyses were performed in triplicate. That is, three culture wells were used per time point, radioactive precursor, and drug concentration in all experiments. Results from triplicate assays were converted to percent of control and plotted as log dose-response curves from which 50% inhibitor (I50) concentrations were interpolated. Three concentrations of vidarabine were included on all plates as a positive control.
(§4) Dose-response relationships were used to compare drug effects. These were constructed by linearly regressing the percent inhibition of parameters derived in the preceding sections against log drug concentrations. The 50% inhibitory (I50) concentrations were calculated from the regression lines using the methods described by Goldstein. See Goldstein, A., Biostatistics: An Introductory Text, MacMillan, N.Y., 1964, pp. 156-161. Along with the I50 concentration for visual cytotoxicity, the averaged I50 concentrations are compared to I50 concentrations for inhibition for HCMV or HSV-1 replication. Compounds for which the ratio of cytotoxicity I50 concentrations to antiviral I50 concentrations (in vitro therapeutic index) were greater than 10, were considered for further study.

Data set [1] concerns KB cells. As to the kind of experiment: cells. The format is cell-based, human. The following applies: Homo sapiens; [3H]dThd incorporation, KB cells; read-out: I50 on [3H]dThd incorporation. On the procedure: as §1, §2, §3, §4
For data set [2], the system named is HCMV. As to the kind of experiment: HCMV plaque (focus) reduction assay. The following applies: Human betaherpesvirus 5; Table 1; HFF cells; read-out: 50% Inhibitory Concentration HCMV Plaque. The format is cell-based.
Excerpt: (§5) The 148 strain of HSV-1 was used in most experiments and was provided by Dr. T. W. Schafer of Schering corporation. The HF strain of HSV-1 was used in selected experiments and was obtained from Dr. G. H. Cohen, University of Pennsylvania. The Towne strain, plaque-purified isolate Po, of HCMV was a gift of Dr. Mark Stinski, University of Iowa.
(§6) HCMV was titered in 24-well cluster dishes which were planted to contain 5×10^4 cells/well, grown as described above. When the cells were 70 to 80% confluent, 0.2 ml of the virus suspension was added per wall and adsorbed as described above. At least three ten-fold dilutions of each preparation were used. Following virus adsorption, the cell sheets were overlayed with 0.5% methocel (4000 CPS) in maintenance medium [MEM(E) with 1.1 gm/liter NaHCO3, 100 units/ml penicillin G, 100 μg/ml streptomycin, and 5% fetal bovine serum]. The cultures were incubated in a humidified atmosphere of 4% CO2 -96% air. Viral foci were visible 5 to 7 days after infection using at least 10-fold magnification. Cells were fixed and stained by a 10-minute exposure to a 0.1% solution of crystal violet in 20% methanol 7 to 12 days after infection. Microscopic foci were enumerated at 20-fold magnification using a Nikon Profile Projector.
(§7) The effect of compounds of the replication of HCMV has been measured using both a plaque (focus) reduction assay and a titer (yield) reduction assay. For the former, HFF cells in 24-well culture dishes were infected with approximately 50 p.f.u. of HCMV per well using the procedures detailed above. Compounds dissolved in growth medium were added in three to six selected concentrations to triplicate wells following virus adsorption. Following incubation at 37° C. for 7 to 10 days, cell sheets were fixed, stained and microscopic foci were enumerated as described above. Drug effects were calculated as a percentage of reduction in number of foci in the presence of each drug concentration compared to the number observed in the absence of drug. DHPG (ganciclovir) was used as a positive control in all experiments.
as §4

For data set [3], the system named is HCMV. As to the kind of experiment: HCMV titer (yield) reduction assay. The class given is cell-based. The following applies: Human betaherpesvirus 5; for IC90: Table 1, I90, HFF cells, read-out: HCMV Yield, 90% inhibitory concentration (I90).
Excerpt: as §5, §6
(§8) For titer reduction analysis, HFF cells were planted as described above in 24-well cluster dishes or in 25 cm^2 flasks. When monolayers were approximately 70% confluent, HCMV was added at a m.o.i. of 0.5 p.f.u. per cell and adsorbed as detailed above. Compounds dissolved in growth medium were added in one or one-half logarithm10 dilutions and incubation continued at 37° C. After 7 to 10 days of incubation, culture dishes or flasks were frozen at […] For titer determination, cells were thawed and then subjected to two more cycles of freezing and thawing at 37° C. Serial, one-logarithm10 dilutions of the final suspension were prepared and inoculated onto new cultures of HFF cells. Titer determination was as detailed above in part (1) (b).
as §4

Data set [4] deals with HCMV. As to the kind of experiment: HCMV titer, plaque or yield reduction. The format is cell-based, human cytomegalovirus (Towne strain) in HFF cells.
Excerpt: as §5, §6, §7, §8, §4

The subject of the next data set is HSV-1. As to the kind of experiment: HSV-1 plaque reduction assay, strain S148. The class given is cell-based, herpes simplex virus type 1 (strain S148) in BSC-1 cells. The following applies: Human alphaherpesvirus 1; Table 1; strain S148; BSC-1 cells; read-out: 50% Inhibitory Concentration HSV-1 Plaque.
Excerpt: as §5
HSV-1 was titered using monolayer cultures of BSC-1 cells. Cells were planted at 3×10^5 cells/well using 6-well cluster dishes. MEM(E) supplemented with 10% fetal bovine serum was employed as medium. After 22-24 hours, cells were 90% confluent and were inoculated in triplicate using at least three ten-fold dilutions with 0.2 ml of the virus suspension to be assayed and incubated in a humidified 4% CO2 […] atmosphere for one hour to permit viral adsorption. Following virus adsorption, the cell sheet was overlayed with 5 ml of MEM(E) with 5% serum plus 0.5% methocel (4000 CPS) and incubated an additional two to three days. Cells were fixed and stained with 0.1% crystal violet in 20% methanol and macroscopic plaques enumerated.
Plaque reduction experiments were HSV-1 were performed using monolayer cultures of BSC-1 cells. The assay was performed exactly as described above except that the 0.2 ml virus suspension contained approximately 100 p.f.u. of HSV-1. Compounds to be tested were dissolved in the overlay medium at concentrations usually ranging from 0.1 to 100 μM in half-or-one logarithm10 dilutions. Titer reduction assays were performed by planting KB cells in 25 cm^2 plastic tissue culture flasks 10 to 24 hours prior to infection. At the onset of experiments, logarithmically growing replicate monolayer cultures were 60 to 80% confluent and contained 2.5 to 4.5×10^6 cells/flask. Medium was decanted and the cultures were infected with 2 to 10 p.f.u. of HSV-1 per cell. Virus was contained in 1.0 ml of VGM supplemented with 5% fetal bovine serum. After a 1 hour adsorption period at […], the cell sheet was rinsed twice with 2 ml of VGM without serum to remove unadsorbed virus and 5 ml of VGM containing drugs at three to five selected concentrations added in duplicate. Following an 18- to 22-hour incubation at 37° C., infected monolayers were treated with EDTA-trypsin to suspend the cells; aliquots were removed, subjected to three cycles of freezing and thawing, and stored at -76° C. for subsequent virus assay. Virus was titered on BSC-1 cells as described above.
as §4
(In general: In a plaque reduction assay, fewer plaques than in the control indicate reduced infectivity or spread.)

The nature of data set [5]: Visual cytotoxicity scoring in BSC-1 cells. The class given is cell-based. The following applies: african green monkey, Table 1, at time of HSV-1 plaque enumeration, read-out: 50% Inhibitory Concentration Cytotoxicity BSC (visual).
Excerpt: (§9) Cytotoxicity produced in HFF and BSC-1 cells was estimated by visual scoring of cells not affected by virus infection in the HCMV and HSV-1 plaque reduction assays. Cytopathology was estimated at 35- and 60-fold magnification and scored on a zero to four plus basis. Wells were scored on the day of staining.
as §4

Data set [6] in a line: Visual cytotoxicity scoring in HFF cells. The format is cell-based. The following applies: human, Table 1, at time of HCMV plaque enumeration, read-out: 50% Inhibitory Concentration Cytotoxicity HFF (visual).
Excerpt: as §9, §4

Data set [7] in a line: Growth of KB cells (population doubling times). The format is cell-based, human. The following applies: human, kb cells; 100 μM; read-out: reduction of KB cell growth rate. On the procedure:
(§10) Population doubling times and cell viability were measured in uninfected HFF and/or KB cells. Cells were planted in replicate 6-well plastic tissue culture dishes or in 25 cm^2 flasks as described above in part 1. Following an incubation period during which cells attached to the substrate, medium was decanted, the cell sheet rinsed once with HBS, and fresh medium added. The medium consisted of MEM(E) with 1.1 gm NaHCO3 /liter and 10% fetal bovine or calf serum plus appropriate log or half-log concentrations of drug. After additional periods of incubation from 1 to 72 hours at 37° C., cells were harvested by means of 0.05% trypsin plus 0.02% EDTA in a HEPES-buffered salt solution. Cells were enumerated using either a Coulter counter or a hemocytometer and viability determining using trypsan blue dye exclusion.
(§11) In more extensive cytotoxicity testing, the halogenated compounds were tested for effects on the growth of KB cells. Populations doubling times were calculated from the logarithmic portions of growth curves and were as follows: […]

Data set [8] deals with KB cells. The data set can be described thus: Growth of KB cells (population doubling times). The class given is cell-based, human. On the procedure:
as §10, §11

A further data set relates to viruses. The following applies: cited from earlier work.

`NC(=S)c1cn(COCCO)c2ncnc(N)c12` [UMJD 229, 4-Amino-7-(2-hydroxyethoxymethyl)pyrrolo[2,3-d]pyrimidine-5-thiocarboxamide]: the CC50 in the data set “in vitro” is > 100 µM; in data set [5] it was > 100 µM; in data set [6] it was 100 µM. Moreover, the IC50 in the data set with KB cells [1] was 10 µM; in the data set on HCMV [2], 11 µM; in the data set with HSV-1, > 100 µM. Also, the IC90 in the data set with HCMV [3] is 80 µM. For the same compound, the “activity against HCMV (in words)” value in the data set with HCMV [4] is “active”.

For the compound `NC(=S)c1cn(COC(CO)CO)c2ncnc(N)c12` [UMJD 239, 4-Amino-7-[(1,3-dihydroxy-2-propoxy)methyl]pyrrolo[2,3-d]-pyrimidine-5-thiocarboxamide], the CC50 (in the data set “in vitro”; in [5]; in data set [6]) was > 100 µM in each case. The IC50 in the data set with KB cells [1] was 28 µM; with HCMV [2] it was 8 µM; in the data set on HSV-1 it was > 100 µM. Also, the IC90 with HCMV [3] came to 25 µM.

`OCC(CO)OCn1cc(Cl)c2c(NO)ncnc21` [UMJD 328, 4-hydroxylamino-5-chloro-7-[(1,3-dihydroxy-2-propoxy)methyl]pyrrolo[2,3-d]pyrimidine]: in the data set with HCMV [2], the IC50 amounted to 56 µM. Further, the IC90 in the data set with HCMV [3] was found to be 24 µM. Besides, the “activity against HCMV (in words)” value in the data set on HCMV [4] is “active and nearly as potent as the 4-amino analogs”. In addition, the CC50 in [6] was > 100 µM.

As to `OCC(CO)OCn1cc(I)c2c(NO)ncnc21` [UMJD 329, 4-hydroxylamino-5-iodo-7-[(1,3-dihydroxy-2-propoxy)methyl]pyrrolo[2,3-d]pyrimidine], in [7], the inhibition at 100 µM was > 50%. In addition, in the data set with KB cells [8] (10 μM), the “KB cell growth rate (in words)” value is given as “nearly control rates”. Besides, the “effect on KB cell growth (in words)” value with KB cells [8] (comparison with UMJD 102 / UMJD 183) is “considerably lesser effects on cell growth”. For the same compound, in the data set with HCMV [2], the IC50 amounted to 18 µM. The IC90 with HCMV [3] was found to be 3.2 µM. Further, the “activity against HCMV (in words)” value in the data set with HCMV [4] is “active and nearly as potent as the 4-amino analogs”. Besides, in data set [6], the CC50 was > 100 µM.

As to `Nc1ncnc2c1c(I)cn2COC(CO)CO` [UMJD 330, 4-amino-5-iodo-7-[(1,3-dihydroxy-2-propoxy)methyl]-pyrrolo[2,3-d]pyrimidine], the IC50 in the data set with HCMV [2] turned out to be 3.1 µM. Further, the log reduction at 100 µM with HCMV [3] (FIG. 2, 10-fold higher concentration than UMJD 183 (10 μM)) was determined as 5. The IC90 in the data set on HCMV [3] worked out at 0.9 µM. In data set [6], the CC50 was > 100 µM.

On to `NC(=O)c1cn([C@@H]2O[C@H](CO)[C@@H](O)[C@H]2O)c2ncnc(N)c12` [sangivamycin], for which the “antiviral activity previously reported” value with viruses is on record as “Broad spectrum antiviral activity”.

As for `N#Cc1cn([C@@H]2O[C@H](CO)[C@@H](O)[C@H]2O)c2ncnc(N)c12` [toyocamycin], the “antiviral activity previously reported” value in the data set with viruses is reported as “Broad spectrum antiviral activity”.

Take `Nc1ncnc2c1ccn2[C@@H]1O[C@H](CO)[C@@H](O)[C@H]1O` [tubercidin]: in the data set with viruses, the “antiviral activity previously reported” value was “Broad spectrum antiviral activity”.
